Molecular target: GST-Xa-hAAK1 (Homo sapiens (Human), UniProt Q2M2I8)
Test: AAK1 Kinase Assay
Format: biochemical
Settings: ATP 22 μM; 3 hours at room temperature

Sequence of GST-Xa-hAAK1 (Q2M2I8 whole entry): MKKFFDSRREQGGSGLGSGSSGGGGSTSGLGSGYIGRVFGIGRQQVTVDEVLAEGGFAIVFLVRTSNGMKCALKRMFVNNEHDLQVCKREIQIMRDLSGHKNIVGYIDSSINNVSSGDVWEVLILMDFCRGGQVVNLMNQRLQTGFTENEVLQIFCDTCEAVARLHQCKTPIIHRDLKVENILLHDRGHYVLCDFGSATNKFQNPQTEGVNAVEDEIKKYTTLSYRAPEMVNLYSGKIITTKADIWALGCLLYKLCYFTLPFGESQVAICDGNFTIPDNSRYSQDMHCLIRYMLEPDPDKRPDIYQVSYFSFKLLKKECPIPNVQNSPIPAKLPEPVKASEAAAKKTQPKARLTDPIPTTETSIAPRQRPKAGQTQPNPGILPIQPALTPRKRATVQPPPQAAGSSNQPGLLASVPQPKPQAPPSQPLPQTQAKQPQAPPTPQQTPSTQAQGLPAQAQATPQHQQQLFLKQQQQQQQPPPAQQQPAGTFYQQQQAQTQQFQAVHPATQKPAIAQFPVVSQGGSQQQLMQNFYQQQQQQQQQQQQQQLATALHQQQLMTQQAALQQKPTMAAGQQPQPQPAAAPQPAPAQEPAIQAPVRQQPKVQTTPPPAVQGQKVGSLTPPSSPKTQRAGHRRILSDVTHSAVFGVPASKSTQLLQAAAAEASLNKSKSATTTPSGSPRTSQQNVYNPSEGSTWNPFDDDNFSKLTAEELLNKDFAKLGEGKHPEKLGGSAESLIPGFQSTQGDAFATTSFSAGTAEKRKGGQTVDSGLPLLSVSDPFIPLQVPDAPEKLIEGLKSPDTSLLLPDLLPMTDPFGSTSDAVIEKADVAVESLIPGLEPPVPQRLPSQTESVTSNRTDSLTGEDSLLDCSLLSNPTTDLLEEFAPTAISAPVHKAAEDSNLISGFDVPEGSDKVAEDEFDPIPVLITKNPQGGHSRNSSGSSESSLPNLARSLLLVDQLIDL

SMILES | IC50 [nM]
CC(C)n1nnc(-c2cccc(Nc3ncnn4ccc(C(=O)NCC5CC5)c34)c2)n1 [Example 105, N-(cyclopropylmethyl)-4-((3-(2-isopropyl-2H-tetrazol-5-yl)phenyl)amino)pyrrolo[2,1-f][1,2,4]triazine-5-carboxamide] | 785
CC(C)NC(=O)c1ccn2ncnc(Nc3cccc(-c4nnn(C(C)C)n4)c3)c12 [Example 106, N-isopropyl-4-((3-(2-isopropyl-2H-tetrazol-5-yl)phenyl)amino)pyrrolo[2,1-f][1,2,4]triazine-5-carboxamide] | 2350
CC(C)n1nnc(-c2cccc(Nc3ncnn4ccc(C(=O)NCC#N)c34)c2)n1 [Example 107, N-(cyanomethyl)-4-((3-(2-isopropyl-2H-tetrazol-5-yl)phenyl)amino)pyrrolo[2,1-f][1,2,4]triazine-5-carboxamide] | 469
COCCNC(=O)c1ccn2ncnc(Nc3cccc(-c4nnn(C(C)C)n4)c3)c12 [Example 108, 4-((3-(2-isopropyl-2H-tetrazol-5-yl)phenyl)amino)-N-(2-methoxyethyl)pyrrolo[2,1-f][1,2,4]triazine-5-carboxamide] | 289
CC(C)n1nnc(-c2cccc(Nc3ncnn4ccc(C(=O)N5CCC(N)CC5)c34)c2)n1 [Example 109, (4-aminopiperidin-1-yl)(4-((3-(2-isopropyl-2H-tetrazol-5-yl)phenyl)amino)pyrrolo[2,1-f][1,2,4]triazin-5-yl)methanone] | 4770
CC(C)C[C@@H](N)C(=O)Nc1cccc(Nc2ncnn3ccc(C(=O)N4CCC(N)CC4)c23)c1 [Example 110, (R)-2-amino-N-(3-((5-(4-aminopiperidine-1-carbonyl)pyrrolo[2,1-f][1,2,4]triazin-4-yl)amino)phenyl)-4-methylpentanamide] | 7710
COC(=O)c1cn2ncnc(Nc3cccc(-c4nnn(C(C)C)n4)c3)c2c1CN1CCC(N)CC1 [Example 111, methyl 5-((4-aminopiperidin-1-yl)methyl)-4-((3-(2-isopropyl-2H-tetrazol-5-yl)phenyl)amino)pyrrolo[2,1-f][1,2,4]triazine-6-carboxylate] | 16

Test system: mice (pain response, formalin paw test)
Test: formalin paw test
Format: in vivo, mouse
Settings: 60 mg/kg sc; % response relative to gabapentin 200 mg/kg
Description: AAK1 homozygous (−/−) and their wild-type (+/+) littermates were tested using the formalin paw test in order to assess their acute and tonic nociceptive responses. For these tests, Automatic Nociception Analyzers (purchased from the Ozaki lab at University of California, San Diego) were used. A metal band was placed around the left hind paw of each mouse 30 minutes prior to testing. After the 30-minute acclimation period, 20 μl of 5% formalin is subcutaneously injected in the dorsal surface of the left hind paw. Mice were individually housed in cylindrical chambers for 45 minutes. Fresh 5% formalin solution was prepared by diluting formaldehyde (Formalde-fresh 20%, Fisher Scientific, Fair Lawn, N.J.) with distilled water. Investigatory compounds were administered 30 minutes prior to formalin injection.
A computer recorded flinches per minute, total flinches for phase I (acute phase=first 8 minutes), and total flinches for phase II (tonic phase=time between minutes 20-40 or 10-60 minutes for drug studies) through an electromagnetic field. See Yaksh T L, Ozaki G, McCumber D, Rathbun M, Svensson C, Malkmus S, Yaksh M C. An automated flinch detecting system for use in the formalin nociceptive bioassay. J Appl Physiol., 2001; 90:2386-402.
The same test was used to confirm that the administration of an AAK1 inhibitor can also affect pain response. […]

SMILES | Response [%]
CC(C)c1nc(-c2cccc(NC(=O)c3cnc4ccc(NC5CCC(N)CC5)nn34)c2)no1 [6-(((1R,4R)-4-aminocyclohexyl)amino)-N-(3-(5-isopropyl-1,2,4-oxadiazol-3-yl)phenyl)imidazo[1,2-b]pyridazine-3-carboxamide] | 59

Same assay, conditions: 200 mg/kg sc; % response relative to gabapentin 200 mg/kg

SMILES | Response [%]
NCC1(CC(=O)O)CCCCC1 [Gabapentin, reference compound] | 73

Reference: patent US9737542B2, “Pyrrolotriazine kinase inhibitors” (BRISTOL-MYERS SQUIBB COMPANY, priority 2013, dated 2017)
